In patent US20240368173A1, “TRICYCLIC GPR65 MODULATORS” (PATHIOS THERAPEUTICS LIMITED, priority 2021, published 2024):

Each compound was assayed against human recombinant GPR65 (Homo sapiens, UniProt Q8IYL9) (assay: Human GPR65 cAMP HTRF antagonist assay). Conditions: not given.
Format: cell-based
Outline: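 Antagonism measured as suppression of the cAMP rise when pH is dropped to 7.2 (control wells pH 7.9) in 1321N1 cells stably carrying human GPR65. Cells in KRH with 1 mM IBMX and 200 μM EDTA saw compound 30 min, then acid stimulation 30 min; HTRF cAMP detection, normalised, 4-parameter logistic IC50.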

human recombinant GPR65, sequence (Q8IYL9 whole entry): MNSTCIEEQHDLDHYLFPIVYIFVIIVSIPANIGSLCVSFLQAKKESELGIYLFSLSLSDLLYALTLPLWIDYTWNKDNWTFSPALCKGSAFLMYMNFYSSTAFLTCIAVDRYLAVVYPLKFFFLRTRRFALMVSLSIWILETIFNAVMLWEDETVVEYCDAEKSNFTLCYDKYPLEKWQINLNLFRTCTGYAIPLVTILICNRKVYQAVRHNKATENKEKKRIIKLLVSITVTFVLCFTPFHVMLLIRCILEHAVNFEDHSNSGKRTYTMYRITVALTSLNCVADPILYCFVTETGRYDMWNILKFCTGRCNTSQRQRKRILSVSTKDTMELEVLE

| SMILES | IC50 [nM] |
| --- | --- |
| CC(C)Oc1ccc(-c2cc(F)c(NC(=O)N3[C@H]4CC[C@@H]3c3n[nH]c(=O)cc3C4)cc2Cl)cn1 [Compound 209, (6S,9R)-N-(5-Chloro-2-fluoro-4-(6-isopropoxypyridin-3-yl)phenyl)-3-oxo-3,5,6,7,8,9-hexahydro-2H-6,9-epiminocyclohepta[c]pyridazine-10-carboxamide] | < 500 |
| CO[C@H]1C[C@H](Oc2ccc(NC(=O)N3[C@H]4CC[C@@H]3c3ccnc(F)c3C4)cc2Cl)C1 [Compound 73, (5R,8S)-N-(3-Chloro-4-((1r,3R)-3-methoxycyclobutoxy)phenyl)-1-fluoro-6,7,8,9-tetrahydro-5H-5,8-epiminocyclohepta[c]pyridine-10-carboxamide] | 500 to 5000 |
| O=C(Nc1cc(Cl)c(-c2ccc3nonc3c2)cc1F)N1[C@H]2CC[C@@H]1c1c[nH]c(=O)cc1C2 [Compound 167, (6S,9R)-N-(4-(Benzo[c][1,2,5]oxadiazol-5-yl)-5-chloro-2-fluorophenyl)-3-oxo-3,5,6,7,8,9-hexahydro-2H-6,9-epiminocyclohepta[c]pyridine-10-carboxamide] | < 500 |
| O=C(Nc1cc(Cl)c(-c2ccc3nonc3c2)cc1F)N1[C@H]2CC[C@@H]1c1n[nH]c(=O)cc1C2 [Compound 108, (6S,9R)-N-(4-(Benzo[c][1,2,5]oxadiazol-5-yl)-5-chloro-2-fluorophenyl)-3-oxo-3,5,6,7,8,9-hexahydro-2H-6,9-epiminocyclohepta[c]pyridazine-10-carboxamide] | < 500 |
| O=C(Nc1cc(Cl)c(-c2cnc3nonc3c2)cc1F)N1[C@H]2CC[C@@H]1c1n[nH]c(=O)cc1C2 [Compound 165, (6S,9R)-N-(4-([1,2,5]Oxadiazolo[3,4-b]pyridine-6-yl)-5-chloro-2-fluorophenyl)-3-oxo-3,5,6,7,8,9-hexahydro-2H-6,9-epiminocyclohepta[c]pyridazine-10-carboxamide] | < 500 |
| COc1cc(-c2cc(F)c(NC(=O)N3[C@H]4CC[C@@H]3c3c[nH]c(=O)cc3C4)cc2Cl)ccn1 [Compound 265, (6S,9R)-N-(5-Chloro-2-fluoro-4-(2-methoxypyridin-4-yl)phenyl)-3-oxo-3,5,6,7,8,9-hexahydro-2H-6,9-epiminocyclohepta[c]pyridine-10-carboxamide] | < 500 |
| O=C(Nc1cc(F)c(-c2ccc(C(F)(F)F)nc2)cc1F)N1[C@H]2CC[C@@H]1c1n[nH]c(=O)cc1C2 [Compound 286, (6S,9R)-N-(2,5-Difluoro-4-(6-(trifluoromethyl)pyridin-3-yl)phenyl)-3-oxo-3,5,6,7,8,9-hexahydro-2H-6,9-epiminocyclohepta[c]pyridazine-10-carboxamide] | < 500 |
| O=C(Nc1ccc(-c2ccsc2)cc1)N1[C@H]2CC[C@@H]1c1ccnc(F)c1C2 [Compound 55, (5R,8S)-1-Fluoro-N-(4-(thiophen-3-yl)phenyl)-6,7,8,9-tetrahydro-5H-5,8-epiminocyclohepta[c]pyridine-10-carboxamide] | < 500 |
| O=C(Nc1cc(Cl)c(-c2ccnc(F)c2)cc1F)N1[C@H]2CC[C@@H]1c1c[nH]c(=O)cc1C2 [Compound 267, (6S,9R)-N-(5-Chloro-2-fluoro-4-(2-fluoropyridin-4-yl)phenyl)-3-oxo-3,5,6,7,8,9-hexahydro-2H-6,9-epiminocyclohepta[c]pyridine-10-carboxamide] | < 500 |
| O=C(Nc1cc(Cl)c(-c2ccc(N3CCOCC3)nc2)cc1F)N1[C@H]2CC[C@@H]1c1n[nH]c(=O)cc1C2 [Compound 340, (6S,9R)-N-(5-Chloro-2-fluoro-4-(6-morpholinopyridin-3-yl)phenyl)-3-oxo-3,5,6,7,8,9-hexahydro-2H-6,9-epiminocyclohepta[c]pyridazine-10-carboxamide] | < 500 |
| O=C(Nc1ccc(Cl)c(Cl)c1)N1C2CCC1c1n[nH]c(=O)cc1C2 (racemic) [Compound 75, (±)-N-(3,4-Dichlorophenyl)-3-oxo-3,5,6,7,8,9-hexahydro-2H-6,9-epiminocyclohepta[c]pyridazine-10-carboxamide] | < 500 |
| O=C(Nc1ccc(C2CC2)c(Cl)c1)N1[C@H]2CC[C@@H]1c1ccnc(F)c1C2 [Compound 59, (5R,8S)-N-(3-Chloro-4-cyclopropylphenyl)-1-fluoro-6,7,8,9-tetrahydro-5H-5,8-epiminocyclohepta[c]pyridine-10-carboxamide] | < 500 |
| O=C(Nc1cc(Cl)c(-c2ccc(OC(F)F)nc2)cc1F)N1[C@H]2CC[C@@H]1c1ccnc(F)c1C2 [Compound 324, (5R,8S)-N-(5-Chloro-4-(6-(difluoromethoxy)pyridin-3-yl)-2-fluorophenyl)-1-fluoro-6,7,8,9-tetrahydro-5H-5,8-epiminocyclohepta[c]pyridine-10-carboxamide] | < 500 |
| O=C(Nc1cc(-c2ccc3nonc3c2)c(C(F)(F)F)cc1F)N1[C@H]2CC[C@@H]1c1c[nH]c(=O)cc1C2 [Compound 259, (6S,9R)-N-(5-(Benzo[c][1,2,5]oxadiazol-5-yl)-2-fluoro-4-(trifluoromethyl)phenyl)-3-oxo-3,5,6,7,8,9-hexahydro-2H-6,9-epiminocyclohepta[c]pyridine-10-carboxamide] | < 500 |
| COc1ccc(-c2cc(F)c(NC(=O)N3[C@H]4CC[C@@H]3c3ccnc(F)c3C4)cc2Cl)cn1 [Compound 185, (5R,8S)-N-(5-Chloro-2-fluoro-4-(6-methoxypyridin-3-yl)phenyl)-1-fluoro-6,7,8,9-tetrahydro-5H-5,8-epiminocyclohepta[c]pyridine-10-carboxamide] | < 500 |
| Cc1nc2ccc(-c3cc(F)c(NC(=O)N4[C@H]5CC[C@@H]4c4n[nH]c(=O)cc4C5)cc3Cl)cc2o1 [Compound 170, (6S,9R)-N-(5-Chloro-2-fluoro-4-(2-methylbenzo[d]oxazol-6-yl)phenyl)-3-oxo-3,5,6,7,8,9-hexahydro-2H-6,9-epiminocyclohepta[c]pyridazine-10-carboxamide] | < 500 |
| CO[C@H]1CC[C@H](Oc2ccc(-c3cc(F)c(NC(=O)N4[C@H]5CC[C@@H]4c4n[nH]c(=O)cc4C5)cc3Cl)cn2)CC1 [Compound 337, (6S,9R)-N-(5-chloro-2-fluoro-4-(6-(((1r,4r)-4-methoxycyclohexyl)oxy)pyridin-3-yl)phenyl)-3-oxo-3,5,6,7,8,9-hexahydro-2H-6,9-epiminocyclohepta[c]pyridazine-10-carboxamide] | < 500 |
| O=C(Nc1cc(Cl)c(-c2ccc(OC3CCC3)nc2)cc1F)N1[C@H]2CC[C@@H]1c1c[nH]c(=O)cc1C2 [Compound 239, (6S,9R)-N-(5-Chloro-4-(6-cyclobutoxypyridin-3-yl)-2-fluorophenyl)-3-oxo-3,5,6,7,8,9-hexahydro-2H-6,9-epiminocyclohepta[c]pyridine-10-carboxamide] | < 500 |
| O=C(Nc1cc(Cl)c(Oc2ccc(F)nc2)cc1F)N1[C@H]2CC[C@@H]1c1n[nH]c(=O)cc1C2 [Compound 225, (6S,9R)—N-(5-Chloro-2-fluoro-4-((6-fluoropyridin-3-yl)oxy)phenyl)-3-oxo-3,5,6,7,8,9-hexahydro-2H-6,9-epiminocyclohepta[c]pyridazine-10-carboxamide] | < 500 |

Same assay, conditions: 1321N1-hrGPR65 cells, cAMP HTRF, assay pH 7.2; read-out: hGPR65 IC50 (Activity of selected compounds according to the invention)

| SMILES | IC50 [nM] |
| --- | --- |
| N#Cc1cc(F)c(NC(=O)N2C3CCC2c2n[nH]c(=O)cc2C3)cc1Cl (racemic) [Compound 53, (±)-N-(5-Chloro-4-cyano-2-fluorophenyl)-3-oxo-3,5,6,7,8,9-hexahydro-2H-6,9-epiminocyclohepta[c]pyridazine-10-carboxamide] | 500 to 5000 |
| O=C(Nc1cc(Cl)c(-c2cn[nH]c2)cc1F)N1[C@H]2CC[C@@H]1c1n[nH]c(=O)cc1C2 [Compound 119, (6S,9R)-N-(5-Chloro-2-fluoro-4-(1H-pyrazol-4-yl)phenyl)-3-oxo-3,5,6,7,8,9-hexahydro-2H-6,9-epiminocyclohepta[c]pyridazine-10-carboxamide] | > 5000 |
| CNC(=O)c1ccc(-c2cc(F)c(NC(=O)N3[C@H]4CC[C@@H]3c3n[nH]c(=O)cc3C4)cc2Cl)cc1 [Compound 130, (6S,9R)-N-(2-Chloro-5-fluoro-4′-(methylcarbamoyl)-[1,1′-biphenyl]-4-yl)-3-oxo-3,5,6,7,8,9-hexahydro-2H-6,9-epiminocyclohepta[c]pyridazine-10-carboxamide] | 500 to 5000 |
| O=C(Nc1cc(Cl)c(Cl)cc1F)N1[C@@H]2CC[C@H]1c1ncc(F)cc1C2 [Compound 95, (6R,9S)-N-(4,5-Dichloro-2-fluorophenyl)-3-fluoro-6,7,8,9-tetrahydro-5H-6,9-epiminocyclohepta[b]pyridine-10-carboxamide] | > 5000 |
| O=C(Nc1cc(Cl)c(-c2cncnc2)cc1F)N1[C@H]2CC[C@@H]1c1n[nH]c(=O)cc1C2 [Compound 137, (6S,9R)-N-(5-Chloro-2-fluoro-4-(pyrimidin-5-yl)phenyl)-3-oxo-3,5,6,7,8,9-hexahydro-2H-6,9-epiminocyclohepta[c]pyridazine-10-carboxamide] | 500 to 5000 |
| Cc1ncc(-c2ccc(NC(=O)N3[C@H]4CC[C@@H]3c3ccnc(F)c3C4)cc2)o1 [Compound 56, (5R,8S)-1-Fluoro-N-(4-(2-methyloxazol-5-yl)phenyl)-6,7,8,9-tetrahydro-5H-5,8-epiminocyclohepta[c]pyridine-10-carboxamide] | 500 to 5000 |
| CS(=O)(=O)c1cncc(-c2cc(F)c(NC(=O)N3[C@H]4CC[C@@H]3c3n[nH]c(=O)cc3C4)cc2Cl)c1 [Compound 122, (6S,9R)-N-(5-Chloro-2-fluoro-4-(5-(methylsulfonyl)pyridin-3-yl)phenyl)-3-oxo-3,5,6,7,8,9-hexahydro-2H-6,9-epiminocyclohepta[c]pyridazine-10-carboxamide] | 500 to 5000 |
| O=C(Nc1cc(Cl)c(Cl)cc1F)N1[C@H]2CC[C@@H]1c1ncccc1C2 [Compound 90, (6S,9R)-N-(4,5-Dichloro-2-fluorophenyl)-6,7,8,9-tetrahydro-5H-6,9-epiminocyclohepta[b]pyridine-10-carboxamide] | > 5000 |
